Measurements: US5374772A, “Substituted benzoic acids, inhibitors of phospholipases A2” (Hoffmann-LaRoche Inc., priority 1993, dated 1994)

Test system: paw edema induced by Naja naja venom phospholipase A2
Test: Phospholipase A2 Rat Paw Edema
Format: in vivo, Lewis rats
Details: 30 mg/kg ip, measured 2 hours after PLA2 injection

With `CCCCCCCCCCCCCCCCCCOc1cc(OC(=O)C(c2ccccc2)c2ccccc2)cc(C(=O)O)c1` [Example 11, 3-(Octadecyloxy)-5-(2,2-diphenyl-1-oxoethoxy) benzoic acid] the “inhibition of edema (PLA2 rat paw edema)” value was 29%.
